Where two headings read alike, the source gives them in different places.
Experiments:
L36 Tumors = test: Short term (4/24 hrs) histopathology of L3.6 tumors: necrosis, mitotic index, apoptosis (H&E), caspase 3 staining; assay type: in vivo, mice
Experimental: (§1) In vivo experiments utilized SCID/Beige/Taconic male mice inoculated subcutaneously (S.C.) with 2×10^6 L3.6 pancreatic cells. Chemotherapy dose levels were based on standardized clinical dosing as modified from in vitro data. […] The data recovered included maximum tumor volume, tumor weight, body weight and survival. Histopathology studies were carried out in a separate group of 40 mice treated by the same drug dose levels and autopsied at 4 hours and 24 hours. Tumors were bi-valved and fixed in buffered formalin or frozen in hexane/acetone bath. A major focus was effects on tumor necrosis, apoptosis, mitotic index and caspase 3 index.

[1] = tested on: L3.6 pancreatic tumor implants; conditions: for Mean Body Weight (g) (Time of Death or Sacrifice): at time of death or sacrifice; for anti-tumor response in combination therapy with C6-ceramide: SCID Mice bearing L3.6 pancreatic tumor implants
Experimental: as §1
SCID/Beige/Taconic male mice, 22-25 g, 6-8 weeks old purchased from Taconic Laboratory (Germantown, N.Y.) were ear tagged and randomized into eight groups of 5 mice each prior to inoculation s.c. with 2×10^6 L3.6 PA cells (46) in a volume 0.1 ml into the internal surface of the right thigh. Treatment was started according to the protocol <0.5 cc> (early 4 days or late 10 days). […] Mice were treated 3 times/week for 4-6 weeks with intraperitoneal injections of chemotherapy at dose levels to be described. Body weight of mice and diameters of tumors were measured every week. Tumor volumes (cm^3) were calculated by formula: V=Higher diameter X (smaller diameter)^2/2 (47-50). At the end of the 6 week observation period surviving mice were euthanized with CO2 inhalation. All the mice were autopsied and tissues were fixed in 10% buffered formalin, embedded in paraffin, and H&E sections of primary tumor, lungs, spleen, liver were examined microscopically. We also analyzed survival rate (%), mean tumor volume (MTV), mean survival time (MST), % mice with primary tumors and final rate of tumor development per survival time (FRTD). The last test was calculated from the MTV and MST: FRTD(cm^3/d)=MTV (cm^3/MST/day).
Our initial dose response studies were done using low dose ceramide 1 mg/kg and oxaliplatin dose levels of 11.0 mg/kg→3.5 mg/kg. […] We next studied the optimum ceramide dose level from 1 mg/kg to 10 mg/kg.

[2] = IP 3x/wk from day 4, paclitaxel 3.0, oxaliplatin 2.5, cisplatin 0.5 mg/kg, ceramide 10 mg/kg, volumes calculated in cm^3
[3] = same dosing, 6 week observation
[4] = Oxaliplatin at 2.5 mg/kg with low dose ceramide 1 mg/kg

Structure (SMILES) | % of Necroses (L36 Tumors; 4 hr after treatment) | Apoptosis Index (L36 Tumors; 4 hrs) | Apoptosis N/4000 Cells (L36 Tumors; 4 hrs) [N/4000 Cells] | Caspase 3 Index (L36 Tumors; 4 hrs) | Caspase N/4000 Cells (L36 Tumors; 4 hrs) [N/4000 Cells] | Difference in Caspase Expression Vs. Control (L36 Tumors; 4 hrs) | Mitotic Index (L36 Tumors; 4 hrs) [%] | Apoptosis Index (L36 Tumors; 24 hrs) | Apoptosis N/4000 Cells (L36 Tumors; 24 hrs) [N/4000 Cells] | Caspase 3 Index (L36 Tumors; 24 hrs) | % Survival @ 3 Weeks [1] [%] | % Surviving at 3 wks ([1]; table T3) [%] | % Survival @ 6 Weeks [1] [%] | % Surviving at 6 wks ([1]; table T3) [%] | Mean Final Tumor Volume [1, 2] | Mean Body Weight (g) (Time of Death or Sacrifice) [1] | Mean Survival Time [1, 3] [days] | Mean Final Tumor Volume ([1]; table T3) | Mean Survival Time ([1]; table T3) | anti-tumor response in combination therapy with C6-ceramide [1] | other results
CCCCCCCCCCCCC/C=C/[C@@H](O)[C@H](CO)NC(=O)CCCCC [Ceramide, N-hexanoyl-D-sphingosine] | 30/NA % | 1.6 | 64 | 4.12 | 165 | 155% | 0.6 | 1/2 | 46 | 4.25 | 40 | 40 | 0 | 0 | 1.69 +/− 0.3 | 17.0 | 20.8 ± 1.1 | 1.69 +/− .03 | 20.8 +/− 1.1 | – | Caspase N/4000 Cells (L36 Tumors; 24 hrs): 157 N/4000 Cells; Difference in Caspase Expression Vs. Control (L36 Tumors; 24 hrs): 148%; Mitotic Index (L36 Tumors; 24 hrs): 0/32; synergy regarding anti-tumor effect ([1]; Ceramide 10 mg/kg with oxaliplatin 2.5 mg/kg): optimum synergy; enhancement of oxaliplatin by ceramide ([1]; Ceramide at 1 mg/kg with oxaliplatin 2.5 mg/kg): only modest effects; animal weight under combination therapy ([1]; mouse, in vivo): preservation of animal weight
N.N.[Cl][Pt][Cl] [Cisplatin] | – | – | – | – | – | – | – | – | – | – | 60 | 60 | 0 | 0 | 1.83 +/− 0.1 | 16.6 | 25.6 ± 3.2 | 1.83 +/− 0.1 | 25.6 +/− 3.2 | significantly enhanced | –
O=C1[O][Pt]2([NH][C@@H]3CCCC[C@H]3[NH]2)[O]C1=O [Oxaliplatin] | 30% | 1.35 | 54 | 3.5 | 148 | 132% | 0.92 | 1.28 | 51 | 3/1 | 100 | 100 | 0 | 0 | 1.76 +/− 0.2 | 15.6 | 27.4 ± 2.2 | 1.76 +/− 0.2 | 27.4 +/− 2.2 | significantly enhanced | % of Necroses (L36 Tumors; 24 hr after treatment): 10%; Caspase N/4000 Cells (L36 Tumors; 24 hrs): 123 N/4000 Cells; Difference in Caspase Expression Vs. Control (L36 Tumors; 24 hrs): 121%; Mitotic Index (L36 Tumors; 24 hrs): 0/57; activity in initial dose response studies [1, 4]: most active; toxicity in initial dose response studies [1, 4]: less toxic than other dose levels
CC(=O)O[C@H]1C(=O)[C@@]2(C)[C@H]([C@H](OC(=O)c3ccccc3)[C@]3(O)C[C@H](OC(=O)[C@H](O)[C@@H](NC(=O)c4ccccc4)c4ccccc4)C(C)=C1C3(C)C)[C@]1(OC(C)=O)CO[C@@H]1C[C@@H]2O [Taxol, Paclitaxel] | 50/NA % | – | 66 | – | – | 95%/ ^ | – | – | 110 | – | 60 | 60 | 0 | 0 | 1.83 +/− 0.4 | 17.4 | 23.0 ± 2.4 | 1.83 +/− 0.4 | 23.0 +/− 2.4 | significantly enhanced | –

From patent US20080033039A1, “Combination of ceramide and oxaliplatin for inducing cell death and uses thereof in treating cancer” (priority 2006, published 2008)
